Data published in article PMC8619914, “Development of Novel Peptides for the Antimicrobial Combination Therapy against Carbapenem-Resistant Acinetobacter baumannii Infection” (Pharmaceutics, 2021).
Values after ≈ are worked out from the molar mass of the structure shown. Read-outs that look alike come from different tables or passages of the source. Where no end group is shown, it is not given here.

Assays:
[1] = test system: Acinetobacter baumannii (KCCM 40203); experiment: microbe, parasite or virus in culture
From the text: (§1) The Gram-negative bacterial strain Escherichia coli (KCTC 1682) and Gram-positive bacterial strain Staphylococcus aureus (KCTC 1621) were purchased from the Korean Collection for Type Cultures (Jeongeup, Korea). Acinetobacter baumannii (KCCM 40203) were purchased from Korea Culture Center of Microorganisms (Seoul, Korea). Additionally, five carbapenem-resistant Acinetobacter baumanii C1–C5 (CRAB C1–C5), which have the OXA-23 gene with carbapenem-resistance were collected from the patients with CRAB bacteremia, who presented symptoms and signs of infection at Korea University Anam Hospital (Seoul, Korea) (IRB registration no. 2020AN0157). The minimum inhibitory concentrations (MIC) of the AMP and antibiotics against the various bacterial strains were assessed using the serial dilution method on Muller–Hinton (MH) media, as described previously. […] Absorbance at 600 nm was measured using a SpectraMAX microplate reader (Molecular Devices, San Jose, CA, USA).
(§2) Measurement of the minimum inhibitory concentrations (MIC) was conducted to determine the effect of the hydrophobicity of each antimicrobial peptide on its antimicrobial activity. MIC was defined as the minimum concentration that killed more than 99% of bacteria; it was measured against two standard Gram-negative bacteria (E. coli and A. baumanii), five clinically isolated CRAB (C1–C5), and one Gram-positive bacteria (S. aureus).

[2] = test system: Staphylococcus aureus (KCTC 1621); experiment: microbe, parasite or virus in culture
From the text: as §1, §2

[3] = test system: CRAB C4; experiment: microbe, parasite or virus in culture; conditions: 16 h
From the text: as §1, §2

[4] = test system: Escherichia coli (KCTC 1682); experiment: microbe, parasite or virus in culture
From the text: as §1, §2

[5] = test system: CRAB C1; experiment: microbe, parasite or virus in culture; conditions: 16 h
From the text: as §1, §2

[6] = test system: CRAB C5; experiment: microbe, parasite or virus in culture; conditions: 16 h
From the text: as §1, §2

[7] = test system: CRAB C3; experiment: microbe, parasite or virus in culture; conditions: 16 h
From the text: as §1, §2

[8] = test system: CRAB C2; experiment: microbe, parasite or virus in culture; conditions: 16 h
From the text: as §1, §2

[9] = test system: CRAB C1 biofilm; experiment: Biofilm inhibition, crystal violet; type: cell-based, carbapenem-resistant Acinetobacter baumannii; conditions: Acinetobacter baumannii; 32 μg·mL^−1, CRAB C1, compared to the control; read-out: percentage of biofilm inhibition
Experimental: CRAB C1 cells (2 × 10^5 CFU·mL^−^1) were incubated with PapMA-3 and antibiotics in a tissue-culture well plate in MH medium containing 0.2% glucose for 16 h at 37 °C. The cells were stained with 0.1% (w/v) crystal violet in 0.25% (v/v) acetic acid for 1 h at room temperature; the dye complex was dissolved with ethanol. Absorbance at 595 nm was measured using SpectraMAX microplate reader (Molecular Devices) to quantify the biofilm formation.
Biofilms were quantified by staining with crystal violet. (A) Absorbance of crystal violet-stained biofilms with treatment of PapMA-3 and antibiotics at a concentration range of 32 to 512 μg·mL^−1, assessed at 595 nm. […] CRAB C1 without peptides or antibiotics served as the control (red). Statistical analysis was performed using two-way ANOVA with Dunnett’s comparison test. The values are expressed as the mean ± SEM of three independent experiments and are statistically significant at ** p < 0.01 and *** p < 0.001. ns, not significant.

[10] = test system: Gram-negative bacterial strains; experiment: organism not typed
From the text: as §1
Geometric means (GM) were calculated to compare the relative antimicrobial activities of the analogs against Gram-negative bacteria. […] Next, the antibacterial mechanisms of peptides were investigated.

[11] = test system: CRAB C1; experiment: FE-SEM of membrane damage; type: cell-based, carbapenem-resistant Acinetobacter baumannii; conditions: erythromycin 128 μg·mL^−1 alone, 1 h and 2 h
Experimental: The cells were washed using PBS, fixed in 1% osmium tetroxide for 1 h, and dehydrated using a graded ethanol series. After dehydration, ethanol contents in the sample were replaced with varying ratio (2:1, 1:1, 1:2, 0:1 v/v) of ethanol–isoamyl acetate mixture. The cells were fixed on a glass slide with hexamethyldisilzane, dried under reduced pressure, and platinum-coated; they were visualized using an FE-SEM (SU8020; Hitachi, Tokyo, Japan).
Figure 7 FE-SEM images of CRAB C1 treated with PapMA-3. (A) Only CRAB C1. […] (F–I) same experiments after incubation for 1 h, respectively.

[12] = test system: CRAB C4; experiment: microbe, parasite or virus in culture; conditions: 16 h; remark: listed apart in the source
Experimental: (§3) The synergistic effects of AMPs and antibiotics were measured using checkerboard assays. Serial dilutions of PapMA-3 and antibiotics were performed from 1 to […] of the MIC. Samples were then cross-mixed and cultured in MH medium with 2 × 10^5 CFU·ml^−^1 bacteria. Results were recorded after 16 h of incubation at 37 °C. The fractional inhibitory concentration index (FICI) was calculated according to the European Committee on Antimicrobial Susceptibility (EUCAST).
(§4) The ability of PapMA-3 to facilitate these antibiotics in penetrating the bacterial membranes of Gram-negative bacteria was investigated.

[13] = test system: CRAB C1; experiment: microbe, parasite or virus in culture; conditions: 16 h; remark: listed apart in the source
Experimental: as §3, §4

[14] = test system: CRAB C5; experiment: microbe, parasite or virus in culture; conditions: 16 h; remark: listed apart in the source
Experimental: as §3, §4

[15] = test system: CRAB C3; experiment: microbe, parasite or virus in culture; conditions: 16 h; remark: listed apart in the source
Experimental: as §3, §4

[16] = test system: CRAB C2; experiment: microbe, parasite or virus in culture; conditions: 16 h; remark: listed apart in the source
Experimental: as §3, §4

[17] = test system: HEK-293 cells; experiment: Cytotoxicity, WST-8 Cell Proliferation Assay; type: cell-based, human; conditions: 64 μg·mL^−1, 24 h, WST-8
Experimental: (§5) Human embryonic kidney (HEK)-293 cells, purchased from Korean cell line bank (Seoul, Korea) were cultured in Dulbecco’s modified Eagle’s medium (DMEM) (Welgene, Gyeong-san, Korea) with 10% fetal bovine serum, 1% penicillin-streptomycin at 37 °C in a humidified 5% CO2 incubator as described previously. The cytotoxicity of the six PapMA peptides and melittin was determined using WST-8 Cell Proliferation Assay Kit (Biomax Co, Ltd., Seoul, Korea), according to the manufacturer’s instructions. […] The absorbance was measured at 450 nm using a SpectraMAX microplate reader (Molecular Devices).
Figure 4 Cytotoxicity of PapMA analogs. (A) Cytotoxicity of PapMA and its analogs against HEK-293 cell. […] (B) Hemolysis activity of PapMA analogs against sRBC. The peptide was serially diluted and incubated with sRBC for 1 h with melittin as a control. Statistical analysis was performed using two-way ANOVA with Dunnett’s comparison test. The values are expressed as the mean ± SEM of three independent experiments and are statistically significant at ** p < 0.01; and *** p < 0.001. ns, not significant.

[18] = test system: CRAB C1; conditions: 50% human serum in MH medium, 16 h, 37 °C; measure of serum stability
Experimental: Antibacterial activity of PapMA-3 in combination with imipenem was measured against CRAB C1 in the presence of 50% human serum. The treated cells were incubated for 16 h at 37 °C, and the absorbance at 600 nm was measured using a SpectraMAX microplate reader (Molecular Devices).

[19] = test system: HaCaT cells; experiment: Cytotoxicity, WST-8 Cell Proliferation Assay; type: cell-based, human; conditions: 32 μg·mL^−1, 24 h and 48 h, compared to blank control
Experimental: as §5
Figure 10 Cytotoxicity of PapMA-3 (A) Cytotoxicity of PapMA-3 against HEK-293 cells at 24 h and 48 h. (B) Cytotoxicity of PapMA-3 against HaCaT cell at 24 h and 48 h. Statistical analysis was performed using two-way ANOVA with Dunnett’s comparison test. The values are expressed as the mean ± SEM of three independent experiments and are statistically significant at * p < 0.05; *** p < 0.001; ns, not significant.

[20] = MH media, 2 × 10^5 CFU·mL^−1, 37 °C, absorbance 600 nm
[21] = checkerboard table, single agent, MH medium, 37 °C

CC[C@H]1OC(=O)[C@H](C)[C@@H](O[C@H]2C[C@@](C)(OC)[C@@H](O)[C@H](C)O2)[C@H](C)[C@@H](O[C@@H]2O[C@H](C)C[C@H](N(C)C)[C@H]2O)[C@](C)(O)C[C@@H](C)C(=O)[C@H](C)[C@@H](O)[C@]1(C)O [Erythromycin]
MIC ([1]; Acinetobacter baumannii, KCCM40203, 16 h, read-out: Minimum Inhibitory Concentration, A. baumanii): 32 µg/mL (≈ 43.6 µM)
MIC ([2]; Staphylococcus aureus, KCTC1621, 16 h, read-out: Minimum Inhibitory Concentration, S.aureus): 0.25 µg/mL (≈ 0.341 µM)
MIC ([3]; Acinetobacter baumannii, read-out: Minimum Inhibitory Concentration, CRAB C4): > 512 µg/mL
MIC ([4]; Escherichia coli, KCTC1682, 16 h, read-out: Minimum Inhibitory Concentration, E. coli): 16 µg/mL (≈ 21.8 µM)
MIC ([5]; Acinetobacter baumannii, read-out: Minimum Inhibitory Concentration, CRAB C1): > 512 µg/mL
MIC ([6]; Acinetobacter baumannii, read-out: Minimum Inhibitory Concentration, CRAB C5): > 512 µg/mL
MIC ([7]; Acinetobacter baumannii, read-out: Minimum Inhibitory Concentration, CRAB C3): 512 µg/mL (≈ 698 µM)
MIC ([8]; Acinetobacter baumannii, read-out: Minimum Inhibitory Concentration, CRAB C2): 512 µg/mL (≈ 698 µM)
inhibition at 32 µg/mL [9]: 37.7%
MIC ([10]; read-out: GM (mean MIC of Gram-negative bacterial strains)): 592 µg/mL
membrane integrity of CRAB C1 (FE-SEM) [11]: not altered
MIC ([12]; Acinetobacter baumannii, read-out: MIC alone, CRAB C4): > 512 µg/mL
MIC ([13]; Acinetobacter baumannii, read-out: MIC alone, CRAB C1): > 512 µg/mL
MIC ([14]; Acinetobacter baumannii, read-out: MIC alone, CRAB C5): > 512 µg/mL
MIC ([15]; Acinetobacter baumannii, read-out: MIC alone, CRAB C3): 512 µg/mL
MIC ([16]; Acinetobacter baumannii, read-out: MIC alone, CRAB C2): 512 µg/mL

RWKIFKKIPKFLHSAKKW-NH2 [PapMA-3]
Minimum Inhibitory Concentration, A. baumanii ([1]; KCCM 40203, 16 h): 16 µg/mL
Minimum Inhibitory Concentration, A. baumannii, MH Media ([1]; KCCM 40203, 16 h): 16 µg/mL
Minimum Inhibitory Concentration, S.aureus ([2]; KCTC 1621, 16 h): 32 µg/mL
Minimum Inhibitory Concentration, CRAB C4 [3, 20]: 32 µg/mL
Minimum Inhibitory Concentration, E. coli, MH Media ([4]; KCTC 1682, 16 h): 16 µg/mL
Minimum Inhibitory Concentration, E. coli ([4]; MH media, 2 × 10^5 CFU·mL^−1, 37 °C, 16 h, absorbance 600 nm, MIC kills more than 99% of bacteria): 16 µg/mL
Minimum Inhibitory Concentration, CRAB C1, MH Media ([5]; MH media without serum, 37 °C): 16 µg/mL
Minimum Inhibitory Concentration, CRAB C1 [5, 20]: 16 µg/mL
Minimum Inhibitory Concentration, CRAB C5 [6, 20]: 16 µg/mL
Minimum Inhibitory Concentration, CRAB C3 [7, 20]: 16 µg/mL
Minimum Inhibitory Concentration, CRAB C2 [8, 20]: 16 µg/mL
survival rate of HEK-293 cells [17]: 100%
GM (mean MIC of Gram-negative bacterial strains) ([10]; seven Gram-negative strains, 256 assumed for MIC > 128 and 1024 for MIC > 512 μg·mL^−1): 18 µg/mL
MIC alone, CRAB C4 [12, 21]: 32 µg/mL
MIC alone, CRAB C1 [13, 21]: 16 µg/mL
MIC alone, CRAB C5 [14, 21]: 16 µg/mL
MIC alone, CRAB C3 [15, 21]: 16 µg/mL
MIC alone, CRAB C2 [16, 21]: 16 µg/mL
Minimum Inhibitory Concentration, CRAB C1, + Serum (50%) [18]: 64 µg/mL
cell proliferation and viability, HaCaT [19]: remained unaltered
